A short description of data set [1]: Toxicity in wildtype C57BL/6J mouse assessed as irritation at 0.3 %, SC administered via hind paw and measured within 45 mins. To be noted: in vivo, 0.75 h.
Data set [2] is described as follows: Selectivity ratio of EC50 for agonist activity at mouse TRPA1 expressed in HEK293T cells to EC50 for agonist activity at human TRPA1 expressed in HEK293T cells. In kind it is cell-based.
In data set [3] the test system is Mus musculus. In words: Antinociceptive activity in TRPA1 knock-out mouse model of thermal pain assessed as increase in paw lick latency at 20 mg/kg, po preadministered for 30 mins followed by exposure to 55 degreeC and measured up to 4 hrs by hot plate test. In kind it is functional, organism-based.
The target in data set [4] is Transient receptor potential cation channel subfamily A member 1 (Mus musculus, UniProt Q8BLA8). The data set is described as follows: Agonist activity at mouse TRPA1 expressed in HEK293T cells by whole cell patch clamp recordings. It counts as cell-based. Background: In patch-clamp work, channel activity is measured electrically.
The nature of data set [5]: Toxicity in wildtype C57BL/6J mouse assessed as irritation at 1 %, SC administered via hind paw and measured within 45 mins. The settings on record: in vivo, 0.75 h.
Data set [6] has as its target T1, Transient receptor potential cation channel subfamily A member 1 (Homo sapiens, UniProt O75762). The data set is described as follows: Agonist activity at human TRPA1 expressed in HEK293T cells by whole cell patch clamp recordings. In kind it is cell-based.
Data set [7] addresses T1, Transient receptor potential cation channel subfamily A member 1. The data set is described as follows: Irreversible binding affinity to TRPA1 (unknown origin). To be noted: filed as agonist.
In data set [8] the target is Transient receptor potential cation channel subfamily A member 1 (Mus musculus) (UniProt Q8BLA8). The data set is described as follows: Desensitization of mouse TRPA1 expressed in HEK293T cells assessed as time constant (tau) at 200 uM in presence of Ca2+ containing solution by whole cell patch clamp recording. In kind it is cell-based. To be noted: filed as agonist.

In data set [9] the target is T1, Transient receptor potential cation channel subfamily A member 1. In words: Agonist activity at human TRPA1 expressed in HEK293T cells assessed as increase in channel opening by measuring open probability at 30 uM in presence of A-967079 by single-channel recordings. It counts as cell-based. The settings on record: filed as agonist.
Data set [10] has the same target. In words: Agonist activity at human TRPA1 expressed in HEK293T cells assessed as increase in channel opening by measuring single channel conductance at 30 uM in presence of A-967079 by single-channel recordings. In kind it is cell-based. To be noted: filed as agonist.
For data set [11], the system named is Mus musculus. The data set is described as follows: Antinociceptive activity in CFA-induced male C57BL/6J mouse model of inflammatory pain assessed as paw withdrawal mechanical threshold at 20 mg/kg, po challenged with CFA for 24 hrs followed by compound administration for 30 mins and measured after 4 hrs (reference value: 0.47 +/- 0.10 g). It counts as functional.

Data set [12] has as its system Mus musculus. In words: Effect on mechanical allodynia in male C57BL/6J mouse assessed as paw withdrawal mechanical threshold at 20 mg/kg, po administered for 30 mins (reference value: 1.77 +/- 0.21 g). It counts as functional. To be noted: 0.5 h.
For data set [13], the system named is Mus musculus. The data set is described as follows: Antinociceptive activity in wildtype female C57BL/6J mouse model of thermal pain assessed as paw withdrawal latency time at 20 mg/kg, po preadministered for 30 mins followed by exposure to 55 degreeC and measured after 4 hrs by hot plate test (reference value: 17.41 +/- 1.18 sec). It counts as functional.

Data set [14] deals with Mus musculus. In words: Antinociceptive activity in CFA-induced male C57BL/6J mouse model of inflammatory pain assessed as paw withdrawal mechanical threshold at 20 mg/kg, po challenged with CFA for 24 hrs followed by compound administration for 30 mins and measured after 1 hrs (reference value: 0.22 +/- 0.03 g). In kind it is functional. The settings on record: time 1.5 hrs.

The test system of data set [15] is Mus musculus. The data set is described as follows: Antinociceptive activity in CFA-induced male C57BL/6J mouse model of inflammatory pain assessed as paw withdrawal mechanical threshold at 20 mg/kg, po challenged with CFA for 24 hrs followed by compound administration for 30 mins and measured after 0.5 hrs (reference value: 0.39 +/- 0.05 g). To be noted: time 1 hrs. It counts as functional.

In data set [16] the test system is Mus musculus. In words: Antinociceptive activity in wildtype female C57BL/6J mouse model of thermal pain assessed as paw withdrawal latency time at 20 mg/kg, po preadministered for 30 mins followed by exposure to 55 degreeC and measured after 120 mins by hot plate test (reference value: 15.65 +/- 1.22 sec). To be noted: time 150 min. In kind it is functional. A general note: Hot-plate and tail-flick tests time the reaction to a heat stimulus.

Data set [17] deals with Mus musculus. The data set is described as follows: Antinociceptive activity in wildtype female C57BL/6J mouse model of thermal pain assessed as paw withdrawal latency time at 20 mg/kg, po preadministered for 30 mins followed by exposure to 55 degreeC and measured after 60 mins by hot plate test (reference value: 13.65 +/- 0.69 sec). In kind it is functional. The settings on record: time 90 min, 1.5 h.

Data set [18] relates to Mus musculus. The data set is described as follows: Antinociceptive activity in wildtype female C57BL/6J mouse model of thermal pain assessed as paw withdrawal latency time at 20 mg/kg, po preadministered for 30 mins followed by exposure to 55 degreeC and measured immediately by hot plate test (reference value: 16.65 +/- 1.02 sec). In kind it is functional. To be noted: 0.5 h.

The subject of data set [19] is Mus musculus. In words: Antinociceptive activity in wildtype female C57BL/6J mouse model of thermal pain assessed as paw withdrawal latency time at 20 mg/kg, po preadministered for 30 mins followed by exposure to 55 degreeC and measured after 30 mins by hot plate test (reference value: 11.83 +/- 1.25 sec). It counts as functional. The settings on record: time 60 min, 1 h.

Data set [20] has as its system Mus musculus. The data set is described as follows: Antinociceptive activity in CFA-induced male C57BL/6J mouse model of inflammatory pain assessed as paw withdrawal mechanical threshold at 20 mg/kg, po challenged with CFA for 24 hrs followed by compound administration for 30 mins and measured after 2 hrs (reference value: 0.55 +/- 0.13 g). It counts as functional.

The test system of data set [21] is Mus musculus. In words: Antinociceptive activity in CFA-induced male C57BL/6J mouse model of inflammatory pain assessed as paw withdrawal mechanical threshold at 20 mg/kg, po challenged with CFA for 24 hrs followed by compound administration for 30 mins and measured immediately (reference value: 0.47 +/ 0.14 g). It counts as functional. To be noted: 0.5 h.
The subject of data set [22] is Mus musculus. The data set is described as follows: Antinociceptive activity in acetic-acid induced TRPA1 knock-out mouse model of visceral pain assessed as reduction in abdominal writhing at 20 mg/kg, po preadministered for 30 mins followed by acetic acid challenge and measured after 15 mins. In kind it is functional, organism-based.
Data set [23] relates to Mus musculus. In words: Antinociceptive activity in acetic-acid induced wildtype male C57BL/6J mouse model of visceral pain assessed as reduction in abdominal writhing at 20 mg/kg, po preadministered for 30 mins followed by acetic acid challenge and measured after 15 mins. It counts as functional, organism-based. (In general: In writhing tests, fewer writhes than in controls are read as antinociception.)

Calls of active or inactive are those of the source.

The term EC50 denotes the concentration that produces a half-maximal response.

T1 sequence (O75762 whole entry): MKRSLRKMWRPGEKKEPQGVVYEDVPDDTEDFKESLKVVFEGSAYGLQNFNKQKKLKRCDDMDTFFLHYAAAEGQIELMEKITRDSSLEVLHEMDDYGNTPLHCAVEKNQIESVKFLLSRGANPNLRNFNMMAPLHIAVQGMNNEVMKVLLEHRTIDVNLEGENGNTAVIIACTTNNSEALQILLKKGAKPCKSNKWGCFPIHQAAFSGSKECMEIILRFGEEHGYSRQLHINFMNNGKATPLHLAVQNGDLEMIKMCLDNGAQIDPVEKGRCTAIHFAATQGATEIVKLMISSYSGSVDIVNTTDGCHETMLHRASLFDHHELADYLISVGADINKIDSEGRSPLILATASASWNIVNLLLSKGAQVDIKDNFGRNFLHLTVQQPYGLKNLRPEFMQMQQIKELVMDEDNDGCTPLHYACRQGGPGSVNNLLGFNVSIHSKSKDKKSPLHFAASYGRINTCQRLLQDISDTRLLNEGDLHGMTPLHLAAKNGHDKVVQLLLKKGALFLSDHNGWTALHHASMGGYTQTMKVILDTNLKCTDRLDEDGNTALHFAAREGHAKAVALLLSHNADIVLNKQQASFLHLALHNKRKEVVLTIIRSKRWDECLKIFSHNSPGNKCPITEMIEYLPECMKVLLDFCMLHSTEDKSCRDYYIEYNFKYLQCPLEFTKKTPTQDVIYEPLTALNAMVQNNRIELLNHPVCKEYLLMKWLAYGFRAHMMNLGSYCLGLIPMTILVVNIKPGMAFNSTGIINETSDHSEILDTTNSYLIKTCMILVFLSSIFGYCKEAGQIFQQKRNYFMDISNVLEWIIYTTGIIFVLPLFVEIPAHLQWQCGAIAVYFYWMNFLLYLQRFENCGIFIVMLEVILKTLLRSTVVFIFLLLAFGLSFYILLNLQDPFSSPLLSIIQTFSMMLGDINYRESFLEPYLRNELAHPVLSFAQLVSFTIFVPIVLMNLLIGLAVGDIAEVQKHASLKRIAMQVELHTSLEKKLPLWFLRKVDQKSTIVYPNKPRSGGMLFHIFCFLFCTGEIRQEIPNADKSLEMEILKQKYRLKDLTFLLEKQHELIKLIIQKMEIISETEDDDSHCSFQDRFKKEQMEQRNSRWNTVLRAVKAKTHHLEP
Sequence of Transient receptor potential cation channel subfamily A member 1 (Mus musculus) (Q8BLA8 whole entry): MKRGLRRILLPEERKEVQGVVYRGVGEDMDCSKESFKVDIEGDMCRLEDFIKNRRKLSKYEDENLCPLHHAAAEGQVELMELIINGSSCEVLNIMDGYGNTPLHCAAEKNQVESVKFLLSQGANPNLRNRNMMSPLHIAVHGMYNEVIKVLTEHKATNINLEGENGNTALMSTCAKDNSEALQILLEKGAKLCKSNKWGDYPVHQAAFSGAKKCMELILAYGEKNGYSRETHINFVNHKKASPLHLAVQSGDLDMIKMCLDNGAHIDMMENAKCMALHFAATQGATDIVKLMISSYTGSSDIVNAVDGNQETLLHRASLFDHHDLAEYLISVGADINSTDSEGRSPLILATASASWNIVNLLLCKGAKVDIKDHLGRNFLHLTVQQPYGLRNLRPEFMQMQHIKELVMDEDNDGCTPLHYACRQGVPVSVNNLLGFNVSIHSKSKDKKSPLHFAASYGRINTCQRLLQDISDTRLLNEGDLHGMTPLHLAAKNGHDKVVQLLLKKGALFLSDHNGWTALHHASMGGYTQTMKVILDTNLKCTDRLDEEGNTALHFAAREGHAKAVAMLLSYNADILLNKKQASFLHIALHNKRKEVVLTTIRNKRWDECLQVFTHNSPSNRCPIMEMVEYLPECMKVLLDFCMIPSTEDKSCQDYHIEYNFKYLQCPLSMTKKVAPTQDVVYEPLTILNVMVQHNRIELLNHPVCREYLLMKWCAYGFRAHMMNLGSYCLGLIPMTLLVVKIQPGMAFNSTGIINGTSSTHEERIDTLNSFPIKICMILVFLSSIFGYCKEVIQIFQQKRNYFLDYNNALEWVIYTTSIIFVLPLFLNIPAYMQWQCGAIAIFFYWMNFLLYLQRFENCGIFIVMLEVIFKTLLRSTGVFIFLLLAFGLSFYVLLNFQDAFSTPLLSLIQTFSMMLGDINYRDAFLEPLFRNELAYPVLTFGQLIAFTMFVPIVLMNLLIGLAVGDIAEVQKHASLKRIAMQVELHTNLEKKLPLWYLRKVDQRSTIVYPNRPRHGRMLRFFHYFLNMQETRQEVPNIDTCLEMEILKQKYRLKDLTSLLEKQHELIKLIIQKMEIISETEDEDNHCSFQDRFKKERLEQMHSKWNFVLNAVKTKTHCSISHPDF
Sequence of Transient receptor potential cation channel subfamily A member 1 (Mus musculus, UniProt Q8BLA8) (Q8BLA8 whole entry): as above

Turning to `COCCCN(C(=O)CCl)c1nc(-c2ccc(OC)cc2)cs1`, the Activity entry in data set [1] is “Non-toxic”; in data set [5] it was “Toxic”. Moreover, the Ratio EC50 in data set [2] was 1000. The outcome in data set [3] was Active. Also, the 50% effective concentration (EC50) in data set [4] worked out at 5.26 µM; in data set [6] it was 0.00648 µM.
For the compound `CCCCCNc1nc(-c2ccc(O)cc2)cs1`, the result in data set [7] was Active.
The same measure, in the same setting: for `COCCCNc1cc(-c2ccc(C)cc2)cs1` the value was “Active”.
In the case of `S=C=NCc1ccccc1`, the TIME in data set [8] came out at 0.0179 h.
Take `C=CCN=C=S` [ALLYL ISOTHIOCYANATE]: the Activity in [9] is 0.15; in [5] it was “Toxic”; in data set [10] it was 102 pS.
Consider `CC(C)Cc1ccc(C(C)C(=O)O)cc1` (stereo not given) [IBUPROFEN], for which the Activity in data set [11] was 0.42 g; in [12] it was 1.84 g; in data set [14], 1.32 g; in data set [15], 1.2 g; in data set [20], 0.69 g; in data set [21], 0.22 g. The Time is recorded as 14.03 s in [13]; 15.46 s in data set [16]; 31.26 s in data set [17]; 15.72 s in data set [18]; 20.73 s in data set [19]. Further, the outcome in data set [22] and in data set [23] was Active.

Values taken from ChEMBL document CHEMBL6182893, “Discovery of non-electrophilic TRPA1 channel agonists with anti-nociceptive effects via rapid current desensitization” (Eur J Med Chem, 2025).
